Values after ≈ are worked out from the molar mass of the structure shown.
Legend:
Format in all cases: cell-based
RhV-14 (Rhinovirus) = assay: microbe, parasite or virus in culture; conditions: 120 hours at 32° C.; for IC50: Enterovirus, 120 h, read-out: IC50, RhV-14 (50 percent inhibition of plaque formation)
RhV-16 (Rhinovirus) = assay: microbe, parasite or virus in culture; conditions: Enterovirus; 120 hours at 32° C.; read-out: IC50, RhV-16 (50 percent inhibition of plaque formation)
RhV-1 (Rhinovirus) = assay: microbe, parasite or virus in culture; conditions: Enterovirus; 120 hours at 32° C.; read-out: IC50, RhV-1 (50 percent inhibition of plaque formation)
RhV-2 (Rhinovirus) = assay: microbe, parasite or virus in culture; conditions: Enterovirus; 120 hours at 32° C.; read-out: IC50, RhV-2 (50 percent inhibition of plaque formation)
PV-1 (poliovirus) = assay: microbe, parasite or virus in culture; conditions: Enterovirus C; 72 hours at 37° C.; read-out: IC50, PV-1 (50 percent inhibition of plaque formation)
[1] = system: CS-A21C (Coxsackie virus); assay: organism not typed; conditions: 72 hours at 37° C.; read-out: IC50, CS-A21C (50 percent inhibition of plaque formation)
CS-B3 (Coxsackie virus) = assay: organism not typed; conditions: 72 hours at 37° C.; read-out: IC50, CS-B3 (50 percent inhibition of plaque formation)

C#C/C=C(\c1cccc(C(F)(F)F)c1)c1ccc2nc(N)n(S(=O)(=O)C(C)C)c2c1 [14 (trans)]
IC50 (RhV-14 (Rhinovirus)): 0.331 µg/mL (≈ 0.764 µM)

C#CC=C(c1ccc(F)c(F)c1)c1ccc2nc(NS(C)(=O)=O)n(S(=O)(=O)C(C)C)c2c1 [18 (trans)]
IC50 (RhV-14 (Rhinovirus)): 1.88 µg/mL (≈ 3.92 µM)

C#CC=C(c1cc(F)cc(F)c1)c1ccc2nc(N)n(S(=O)(=O)C(C)C)c2c1 [29 (trans)]
IC50 (RhV-16 (Rhinovirus)): 0.261 µg/mL (≈ 0.65 µM) | IC50 (RhV-1 (Rhinovirus)): 0.124 µg/mL (≈ 0.309 µM) | IC50 (RhV-2 (Rhinovirus)): 0.176 µg/mL (≈ 0.438 µM) | IC50 (RhV-14 (Rhinovirus)): 0.236 µg/mL (≈ 0.588 µM)

C#CC=C(c1cccc(Cl)c1)c1ccc2nc(N)n(S(=O)(=O)C(C)C)c2c1 [27 (trans)]
IC50 (RhV-16 (Rhinovirus)): 0.185 µg/mL (≈ 0.463 µM) | IC50 (RhV-1 (Rhinovirus)): 0.129 µg/mL (≈ 0.323 µM) | IC50 (RhV-2 (Rhinovirus)): 0.123 µg/mL (≈ 0.308 µM) | IC50 (RhV-14 (Rhinovirus)): 0.253 µg/mL (≈ 0.633 µM)

C#C/C=C(\c1ccc(C(F)(F)F)cc1)c1ccc2nc(N)n(S(=O)(=O)C(C)C)c2c1 [13 (trans)]
IC50 (PV-1 (poliovirus)): 0.12 µg/mL (≈ 0.277 µM)

C#C/C=C(\c1ccccc1)c1cc2c(cc1F)nc(N)n2S(=O)(=O)C(C)C [5 (trans)]
IC50 (RhV-14 (Rhinovirus)): 1.9 µg/mL (≈ 4.96 µM)

C#CC=C(c1ccccc1)c1cc2c(cc1C)nc(N)n2S(=O)(=O)C(C)C [23 (trans)]
IC50 (RhV-14 (Rhinovirus)): 3.9 µg/mL (≈ 10.3 µM)

C#C/C=C(\c1ccccc1)c1ccc2nc(N)n(S(=O)(=O)C(C)C)c2c1 [2C (trans)]
IC50 (RhV-16 (Rhinovirus)): 0.039 µg/mL (≈ 0.107 µM) | IC50 (RhV-1 (Rhinovirus)): 0.033 µg/mL (≈ 0.0903 µM) | IC50 [1]: 0.32 µg/mL (≈ 0.876 µM) | IC50 (RhV-2 (Rhinovirus)): 0.065 µg/mL (≈ 0.178 µM) | IC50 (RhV-14 (Rhinovirus)): 0.081 µg/mL (≈ 0.222 µM) | IC50 (PV-1 (poliovirus)): 0.035 µg/mL (≈ 0.0958 µM)

C#CC=C(c1ccc2nc(N)n(S(=O)(=O)C(C)C)c2c1)c1ccccc1F [21 (trans)]
IC50, RhV-14 (50 percent inhibition of plaque formation) (RhV-14 (Rhinovirus)): 0.078 µg/mL

C#CC=C(c1ccc(OC(F)(F)F)cc1)c1ccc2nc(N)n(S(=O)(=O)C(C)C)c2c1 [28 (trans)]
IC50 (RhV-2 (Rhinovirus)): 0.535 µg/mL (≈ 1.19 µM)

C#C/C=C(/c1ccccc1)c1ccc2nc(N)n(-c3ccc(OC)cc3)c2c1 [9 (cis)]
IC50 (PV-1 (poliovirus)): 0.52 µg/mL (≈ 1.42 µM)

CC(C)S(=O)(=O)n1c(N)nc2ccc(/C(=C\C#C[Si](C)(C)C)c3ccc(F)cc3)cc21 [1A (cis)]
IC50 (RhV-14 (Rhinovirus)): 3.9 µg/mL (≈ 8.56 µM)

C#CC=C(c1cccc(F)c1)c1ccc2nc(N)n(S(=O)(=O)N(C)C)c2c1 [17 (trans)]
IC50, RhV-14 (50 percent inhibition of plaque formation) (RhV-14 (Rhinovirus)): 0.071 µg/mL

C#CC=C(c1cccc(F)c1)c1ccc2nc(N)n(S(=O)(=O)C(C)C)c2c1 [24 (trans)]
IC50 (RhV-16 (Rhinovirus)): 0.057 µg/mL (≈ 0.149 µM) | IC50 (RhV-1 (Rhinovirus)): 0.027 µg/mL (≈ 0.0704 µM) | IC50 (RhV-2 (Rhinovirus)): 0.069 µg/mL (≈ 0.18 µM) | IC50 (RhV-14 (Rhinovirus)): 0.088 µg/mL (≈ 0.229 µM)

C#CC=C(c1ccc2nc(N)n(S(=O)(=O)C(C)C)c2c1)c1cc(F)ccc1F [26 (trans)]
IC50 (RhV-16 (Rhinovirus)): 0.099 µg/mL (≈ 0.247 µM) | IC50 (RhV-1 (Rhinovirus)): 0.096 µg/mL (≈ 0.239 µM) | IC50 (RhV-2 (Rhinovirus)): 0.079 µg/mL (≈ 0.197 µM) | IC50 (RhV-14 (Rhinovirus)): 0.115 µg/mL (≈ 0.286 µM)

C#C/C=C(\c1ccc(SC)cc1)c1ccc2nc(N)n(S(=O)(=O)C(C)C)c2c1 [4 (trans)]
IC50 (PV-1 (poliovirus)): 0.5 µg/mL (≈ 1.21 µM)

C#C/C=C(\c1ccc(C)c(C)c1)c1ccc2nc(N)n(S(=O)(=O)C(C)C)c2c1 [8 (trans)]
IC50 (PV-1 (poliovirus)): 0.1 µg/mL (≈ 0.254 µM)

C#CC=C(c1ccc([S+](C)[O-])cc1)c1ccc2nc(N)n(S(=O)(=O)C(C)C)c2c1 (stereo not drawn) [30 (trans)]
IC50 (PV-1 (poliovirus)): 0.07 µg/mL (≈ 0.164 µM)

C#C/C=C(\c1ccc(F)cc1)c1ccc2nc(N)n(S(=O)(=O)C(C)C)c2c1 [1B (trans)]
IC50 (RhV-16 (Rhinovirus)): 0.032 µg/mL (≈ 0.0835 µM) | IC50 (RhV-1 (Rhinovirus)): 0.078 µg/mL (≈ 0.203 µM) | IC50 (RhV-2 (Rhinovirus)): 0.091 µg/mL (≈ 0.237 µM) | IC50 (RhV-14 (Rhinovirus)): 0.101 µg/mL (≈ 0.263 µM)

C#CC=C(c1ccc(F)c(F)c1)c1ccc2nc(N)n(S(=O)(=O)C(C)C)c2c1 [20 (trans)]
IC50 (RhV-14 (Rhinovirus)): 0.155 µg/mL (≈ 0.386 µM)

C#CC=C(c1ccc(OC)c(F)c1)c1ccc2nc(N)n(S(=O)(=O)C(C)C)c2c1 [25 (trans)]
IC50 (RhV-16 (Rhinovirus)): 0.06 µg/mL (≈ 0.145 µM) | IC50 (RhV-1 (Rhinovirus)): 0.049 µg/mL (≈ 0.119 µM) | IC50 (RhV-2 (Rhinovirus)): 0.054 µg/mL (≈ 0.131 µM) | IC50, RhV-14 (50 percent inhibition of plaque formation) (RhV-14 (Rhinovirus)): 0.065 µg/mL

C#CC=C(c1cccc(F)c1)c1ccc2nc(N)n(S(=O)(=O)N(C)C)c2c1 [16B (trans)]
IC50 (RhV-14 (Rhinovirus)): 0.038 µg/mL (≈ 0.0988 µM)

CC(C)S(=O)(=O)n1c(N)nc2ccc(/C(=C/C#C[Si](C)(C)C)c3ccc(F)cc3)cc21 [1A (trans)]
IC50 (RhV-14 (Rhinovirus)): 10.9 µg/mL (≈ 23.9 µM)

C#C/C=C(\c1ccccc1)c1ccc2ncn(S(=O)(=O)C(C)C)c2c1 [12 (trans)]
IC50 (PV-1 (poliovirus)): 19.2 µg/mL (≈ 54.8 µM)

C#CC=C(c1ccc(N(C)C)cc1)c1ccc2nc(N)n(S(=O)(=O)C(C)C)c2c1 [15B (trans)]
IC50 (RhV-14 (Rhinovirus)): 0.1 µg/mL (≈ 0.245 µM)

CC#CC=C(c1cccc(F)c1)c1ccc2nc(N)n(S(=O)(=O)C(C)C)c2c1 [33D (trans)]
IC50 (RhV-14 (Rhinovirus)): 0.19 µg/mL (≈ 0.478 µM)

C#C/C=C(\c1ccccc1)c1ccc2nc(N)n(-c3ccc(OC)cc3)c2c1 [9 (trans)]
IC50 (PV-1 (poliovirus)): 0.11 µg/mL (≈ 0.301 µM)

C#CC=C(c1ccc(S(C)(=O)=O)cc1)c1ccc2nc(N)n(S(=O)(=O)C(C)C)c2c1 [31 (trans)]
IC50 (PV-1 (poliovirus)): 0.05 µg/mL (≈ 0.113 µM)

C#C/C=C(\c1ccc(C(C)C)cc1)c1ccc2nc(N)n(S(=O)(=O)C(C)C)c2c1 [11 (trans)]
IC50 (PV-1 (poliovirus)): 0.088 µg/mL (≈ 0.216 µM)

C#C/C=C(\c1ccc(OC)cc1)c1ccc2nc(N)n(S(=O)(=O)C(C)C)c2c1 [3 (trans)]
IC50 (RhV-16 (Rhinovirus)): 0.029 µg/mL (≈ 0.0733 µM) | IC50 (RhV-1 (Rhinovirus)): 0.03 µg/mL (≈ 0.0759 µM) | IC50 (RhV-2 (Rhinovirus)): 0.041 µg/mL (≈ 0.104 µM) | IC50 (RhV-14 (Rhinovirus)): 0.059 µg/mL (≈ 0.149 µM) | IC50 (PV-1 (poliovirus)): 0.21 µg/mL (≈ 0.531 µM)

C#C/C=C(/c1ccccc1)c1ccc2nc(N)n(S(=O)(=O)C(C)C)c2c1 [2C (cis)]
IC50 (CS-B3 (Coxsackie virus)): 0.055 µg/mL (≈ 0.15 µM) | IC50 (PV-1 (poliovirus)): 0.19 µg/mL (≈ 0.52 µM)

C#CC=C(c1ccccc1)c1ccc2nc(N)n(S(=O)(=O)C(C)C)c2c1F [22 (trans)]
IC50 (RhV-14 (Rhinovirus)): 1.9 µg/mL (≈ 4.96 µM)

C#C/C=C(/c1ccc(C(C)C)cc1)c1ccc2nc(N)n(S(=O)(=O)C(C)C)c2c1 [11 (cis)]
IC50 (PV-1 (poliovirus)): 2.74 µg/mL (≈ 6.72 µM)

C#CC=C(c1ccc(C)cc1)c1ccc2nc(N)n(S(=O)(=O)C(C)C)c2c1 [19 (trans)]
IC50 (RhV-14 (Rhinovirus)): 0.078 µg/mL (≈ 0.206 µM)

C#CC=C(c1ccc2nc(N)n(S(=O)(=O)C(C)C)c2c1)c1ccccc1F [21 (cis)]
IC50, RhV-14 (50 percent inhibition of plaque formation) (RhV-14 (Rhinovirus)): 0.478 µg/mL

C#C/C=C(/c1ccccc1)c1ccc2ncn(S(=O)(=O)C(C)C)c2c1 [12 (cis)]
IC50 (PV-1 (poliovirus)): 50 µg/mL (≈ 143 µM)

C#CC=C(c1ccc(OC)c(F)c1)c1ccc2nc(N)n(S(=O)(=O)C(C)C)c2c1 [25 (cis)]
IC50, RhV-14 (50 percent inhibition of plaque formation) (RhV-14 (Rhinovirus)): 0.428 µg/mL

Source: patent publication US5693661A (priority 1995, dated 1997)
